Measured values from BindingDB's records for doi:10.1016/s0960-894x(98)00672-6 (University of Maryland, 1999).

Biological target: Guanine deaminase (Oryctolagus cuniculus)
Test: Compound was tested for its inhibitory effect on rabbit liver guanase

## O=c1cnc2c(ncn2Cc2ccccc2)c(=O)[nH]1 [3-Benzyl-3H-imidazo[4,5-e][1,4]diazepine-6,8-dione]
  Ki: 227 µM
